Biological target: T1, Progesterone receptor (Homo sapiens, UniProt P06401)
T1 sequence (P06401 whole entry): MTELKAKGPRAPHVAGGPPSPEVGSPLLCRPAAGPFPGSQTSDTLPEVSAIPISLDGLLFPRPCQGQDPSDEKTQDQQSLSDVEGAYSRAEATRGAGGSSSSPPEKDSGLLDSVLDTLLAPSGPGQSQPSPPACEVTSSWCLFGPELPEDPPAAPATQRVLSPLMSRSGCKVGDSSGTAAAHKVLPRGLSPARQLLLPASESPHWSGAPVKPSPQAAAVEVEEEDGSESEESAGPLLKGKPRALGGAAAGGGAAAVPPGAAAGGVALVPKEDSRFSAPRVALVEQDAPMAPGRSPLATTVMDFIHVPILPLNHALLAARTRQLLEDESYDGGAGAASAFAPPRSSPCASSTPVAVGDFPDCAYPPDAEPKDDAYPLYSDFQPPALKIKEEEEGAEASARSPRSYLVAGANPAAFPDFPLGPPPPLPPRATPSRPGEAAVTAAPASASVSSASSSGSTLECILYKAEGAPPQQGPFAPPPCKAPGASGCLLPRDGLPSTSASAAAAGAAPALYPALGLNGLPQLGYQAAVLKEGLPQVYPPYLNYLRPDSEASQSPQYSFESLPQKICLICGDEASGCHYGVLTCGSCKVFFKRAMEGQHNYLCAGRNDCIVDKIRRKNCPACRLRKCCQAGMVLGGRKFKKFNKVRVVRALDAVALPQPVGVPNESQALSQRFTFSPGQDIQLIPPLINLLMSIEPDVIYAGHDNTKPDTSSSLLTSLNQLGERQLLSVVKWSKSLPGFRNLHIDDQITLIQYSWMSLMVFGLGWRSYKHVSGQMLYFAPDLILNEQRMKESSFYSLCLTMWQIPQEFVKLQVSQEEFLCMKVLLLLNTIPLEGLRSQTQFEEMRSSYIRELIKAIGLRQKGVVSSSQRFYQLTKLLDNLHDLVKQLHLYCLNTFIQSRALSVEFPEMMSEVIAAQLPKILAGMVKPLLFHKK
Assay: Displacement of [3H]progesterone from Progesterone receptor

Structure (SMILES) | Ki
CC1=CC(C)(C)Nc2ccc3c(c21)COc1c(F)cc(F)cc1-3 [7,9-difluoro-2,2,4-trimethyl-2,5-dihydro-1H-chromeno[3,4-f]quinoline] | 13 nM
CC1=CC(C)(C)Nc2ccc3c(c21)Cc1c(F)cccc1-3 [10-Fluoro-1,3,3-trimethyl-4,11-dihydro-3H-indeno[2,1-f]quinoline] | 15 nM

Source: BindingDB's records for doi:10.1021/jm060234e (Scientific Computing, 2006)
